Results published in ChEMBL document CHEMBL1201862, “PubChem BioAssay data set” (2004).
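Interpolation was linear, between the two tested concentrations surrounding the appropriate level; five concentrations were tested over 48 hours in 96-well plates. At the GI50, growth is halved.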 Activity calls are given as the source filed them. Rule as the data show it: active = GI50 up to about 1.1 µM and inactive = higher.

Legend:
Test in all cases: NCI-60 cell line screen, 48 h
ACHN = tested on: ACHN
SN12C = tested on: SN12C
IGROV-1 = tested on: IGROV-1
SR = tested on: SR
SK-MEL-28 = tested on: SK-MEL-28
OVCAR-4 = tested on: OVCAR-4
OVCAR-8 = tested on: OVCAR-8
SF-295 = tested on: SF-295
HL-60 = tested on: HL-60
SW-620 = tested on: SW-620
NCI-H522 = tested on: NCI-H522
HCT-116 = tested on: HCT-116
SNB-75 = tested on: SNB-75
LOX IMVI = tested on: LOX IMVI
HCC 2998 = tested on: HCC 2998
RXF 393 = tested on: RXF 393
M19-MEL = tested on: M19-MEL
XF498 = tested on: XF498
DMS-273 = tested on: DMS-273
RPMI-8226 = tested on: RPMI-8226
LXFL 529 = tested on: LXFL 529
M14 = tested on: M14
OVCAR-3 = tested on: OVCAR-3
SF-268 = tested on: SF-268
TK-10 = tested on: TK-10
A549 = tested on: A549
786-0 = tested on: 786-0
HOP-92 = tested on: HOP-92
KM12 = tested on: KM12
CCRF-CEM = tested on: CCRF-CEM
NCI-H460 = tested on: NCI-H460
SK-OV-3 = tested on: SK-OV-3
EKVX = tested on: EKVX
MOLT-4 = tested on: MOLT-4
DMS-114 = tested on: DMS-114
COLO 205 = tested on: COLO 205
HT-29 = tested on: HT-29
DLD-1 = tested on: DLD-1
CAKI-1 = tested on: CAKI-1
SK-MEL-5 = tested on: SK-MEL-5
Malme-3M = tested on: Malme-3M
SK-MEL-2 = tested on: SK-MEL-2
HOP-62 = tested on: HOP-62
SF-539 = tested on: SF-539
UACC-257 = tested on: UACC-257
UACC-62 = tested on: UACC-62
HCT-15 = tested on: HCT-15
NCI-H23 = tested on: NCI-H23
K562 = tested on: K562
KM-20L2 = tested on: KM-20L2
HOP-18 = tested on: HOP-18
UO-31 = tested on: UO-31
A498 = tested on: A498
NCI/ADR-RES = tested on: NCI/ADR-RES
U-251 = tested on: U-251
SNB-78 = tested on: SNB-78
SNB-19 = tested on: SNB-19
NCI-H226 = tested on: NCI-H226
DU-145 = tested on: DU-145
BT-549 = tested on: BT-549
MCF7 = tested on: MCF7
T47D = tested on: T47D
MDA-MB-435 = tested on: MDA-MB-435
OVCAR-5 = tested on: OVCAR-5
PC-3 = tested on: PC-3
MDA-N = tested on: MDA-N
Hs-578T = tested on: Hs-578T
MDA-MB-231 = tested on: MDA-MB-231

Cn1ccc2c(C(=O)c3ccccc3)cccc2c1=O
GI50 (ACHN): 85.9 µM (inactive) | GI50 (SN12C): 59.2 µM (inactive) | GI50 (IGROV-1): > 100 µM (inactive) | GI50 (SR): 56.1 µM (inactive) | GI50 (SK-MEL-28): 60.5 µM (inactive) | GI50 (OVCAR-4): 95.5 µM (inactive) | GI50 (OVCAR-8): 56 µM (inactive) | GI50 (SF-295): 20.7 µM (inactive) | GI50 (HL-60): 24.9 µM (inactive) | GI50 (SW-620): 37.9 µM (inactive) | GI50 (NCI-H522): 21.3 µM (inactive) | GI50 (HCT-116): 36.7 µM (inactive) | GI50 (SNB-75): 23.4 µM (inactive) | GI50 (LOX IMVI): 54.3 µM (inactive) | GI50 (HCC 2998): 89.5 µM (inactive) | GI50 (RXF 393): 47.5 µM (inactive) | GI50 (M19-MEL): 74 µM (inactive) | GI50 (XF498): 47.1 µM (inactive) | GI50 (DMS-273): 34.1 µM (inactive) | GI50 (RPMI-8226): 33.2 µM (inactive) | GI50 (LXFL 529): 67.9 µM (inactive) | GI50 (M14): 36.1 µM (inactive) | GI50 (OVCAR-3): 36.8 µM (inactive) | GI50 (SF-268): 97.7 µM (inactive) | GI50 (TK-10): > 100 µM (inactive) | GI50 (A549): 57.4 µM (inactive) | GI50 (786-0): 39.3 µM (inactive) | GI50 (HOP-92): 49.2 µM (inactive) | GI50 (KM12): 42.9 µM (inactive) | GI50 (CCRF-CEM): 32.7 µM (inactive) | GI50 (NCI-H460): 39.8 µM (inactive) | GI50 (SK-OV-3): 70.8 µM (inactive) | GI50 (EKVX): > 100 µM (inactive) | GI50 (MOLT-4): 38 µM (inactive) | GI50 (DMS-114): 38.5 µM (inactive) | GI50 (COLO 205): 44.7 µM (inactive) | GI50 (HT-29): 44.2 µM (inactive) | GI50 (DLD-1): 44.6 µM (inactive) | GI50 (CAKI-1): 68.2 µM (inactive) | GI50 (SK-MEL-5): 28.8 µM (inactive) | GI50 (Malme-3M): 45.4 µM (inactive) | GI50 (SK-MEL-2): 57.7 µM (inactive) | GI50 (HOP-62): 31 µM (inactive) | GI50 (SF-539): 29.6 µM (inactive) | GI50 (UACC-257): > 100 µM (inactive) | GI50 (UACC-62): 31.6 µM (inactive) | GI50 (HCT-15): 25.8 µM

Cc1c2cc[n+](C)cc2c(C)c2c1[nH]c1ccc(O)cc12 [ELLIPTINIUM ACETATE]
GI50 (NCI-H23): 8.91 µM (inactive) | GI50 (K562): 16.9 µM (inactive) | GI50 (SN12C): 0.532 µM (active) | GI50 (IGROV-1): 16.6 µM (inactive) | GI50 (SK-MEL-28): 6.87 µM (inactive) | GI50 (OVCAR-4): 38.3 µM (inactive) | GI50 (OVCAR-8): 11.6 µM (inactive) | GI50 (SF-295): 5.79 µM (inactive) | GI50 (KM-20L2): > 100 µM (inactive) | GI50 (HL-60): 19 µM (inactive) | GI50 (HOP-18): 14.3 µM (inactive) | GI50 (SW-620): 14 µM (inactive) | GI50 (UO-31): 17.7 µM (inactive) | GI50 (A498): 52.5 µM (inactive) | GI50 (NCI-H522): 4.31 µM (inactive) | GI50 (HCT-116): 20.2 µM (inactive) | GI50 (SNB-75): 2.36 µM (inactive) | GI50 (LOX IMVI): 31 µM (inactive) | GI50 (HCC 2998): 49.4 µM (inactive) | GI50 (RXF 393): 62.5 µM (inactive) | GI50 (M19-MEL): 4.7 µM (inactive) | GI50 (NCI/ADR-RES): 61.7 µM (inactive) | GI50 (U-251): 1.32 µM (inactive) | GI50 (SNB-78): 61.9 µM (inactive) | GI50 (SNB-19): 0.904 µM (active) | GI50 (NCI-H226): 1.12 µM (inactive) | GI50 (DMS-273): 11.7 µM (inactive) | GI50 (RPMI-8226): 36.7 µM (inactive) | GI50 (M14): 1.08 µM (active) | GI50 (OVCAR-3): 23.9 µM (inactive) | GI50 (DU-145): 5.46 µM (inactive) | GI50 (SF-268): 0.369 µM (active) | GI50 (TK-10): 68.2 µM (inactive) | GI50 (BT-549): 3.71 µM (inactive) | GI50 (A549): 0.447 µM (active) | GI50 (MCF7): 8.75 µM (inactive) | GI50 (HOP-92): 19.3 µM (inactive) | GI50 (KM12): 2.53 µM (inactive) | GI50 (CCRF-CEM): 4.82 µM (inactive) | GI50 (NCI-H460): 0.228 µM (active) | GI50 (SK-OV-3): 46.5 µM (inactive) | GI50 (EKVX): 38.2 µM (inactive) | GI50 (MOLT-4): 0.241 µM (active) | GI50 (DMS-114): 5.97 µM (inactive) | GI50 (T47D): 0.251 µM (active) | GI50 (COLO 205): 21.8 µM (inactive) | GI50 (MDA-MB-435): 48.9 µM (inactive) | GI50 (HT-29): 62.4 µM (inactive) | GI50 (DLD-1): 57.7 µM (inactive) | GI50 (CAKI-1): 47.4 µM (inactive) | GI50 (OVCAR-5): 71.9 µM (inactive) | GI50 (PC-3): 28.4 µM (inactive) | GI50 (SK-MEL-5): 7.89 µM (inactive) | GI50 (Malme-3M): 1.75 µM (inactive) | GI50 (SK-MEL-2): 66.2 µM (inactive) | GI50 (HOP-62): 4.06 µM (inactive) | GI50 (SF-539): 12 µM (inactive) | GI50 (UACC-257): 64 µM (inactive) | GI50 (UACC-62): 15.3 µM (inactive) | GI50 (MDA-N): 47.8 µM (inactive) | GI50 (Hs-578T): 0.387 µM (active) | GI50 (HCT-15): 50.4 µM | GI50 (MDA-MB-231): 50.9 µM (inactive)
